Measurements as given in patent publication US20240034731A1, “AZA-QUINAZOLINE COMPOUNDS AND METHODS OF USE” (Iambic Therapeutics, Inc., priority 2022, published 2024).
Where two headings read alike, the source gives them in different places.

Tests used:
CDK4/Cyclin D1 = CDK4/Cyclin D1 (Homo sapiens (Human), UniProt P11802); test: CDK4/Cyclin D1 CHEF Assay (AQT0258 peptide); assay type: biochemical; details: 200 uM ATP, read-out: CDK4/ CyclinD1 AQT IC50
Summary of the method: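 Sox-labelled peptide AQT0258 phosphorylation read as chelation-enhanced fluorescence (ex 360/em 485 nm) with Mg(II). Enzyme preincubated with inhibitor 30 min at 22°C, substrate added, 3 h at 22°C; IC50 from four-parameter fit of fractional velocity versus inhibitor concentration.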

OVCAR-3 cells = test: Cell Growth Inhibition, OVCAR-3 (CellTiterGlo, 6 days); assay type: cell-based; details: Homo sapiens, 144 h, OVCAR-3, 6-day treatment
Summary of the method: (§1)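 IC50 from four-parameter, variable-slope fits of % growth inhibition, derived from CellTiterGlo 2.0 luminescence relative to control. Compounds, usually 10-10,000 nM in half-log steps, stayed 6 days at 37 °C, 5% CO2 with 500 MCF-7 or OVCAR-3 cells/well in 10% FBS RPMI.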

CDK6/Cyclin D3 = CDK6/Cyclin D3 (Homo sapiens (Human), UniProt Q00534); test: CDK6/Cyclin D3 ADP-Glo Kinase Assay; assay type: biochemical; details: 100 uM ATP, read-out: CDK6/ CyclinD3 IC50
Summary of the method: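 ADP-Glo luminescence measured ADP produced by CDK6/Cyclin D3 in a 90-min room-temperature reaction started with ATP-containing substrate, after 30-min enzyme–inhibitor pre-incubation. Fractional velocity was plotted against inhibitor concentration and fitted to a four-parameter IC50 model.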

CDK2/Cyclin E1 = CDK2/Cyclin E1 (Homo sapiens (Human), UniProt P24941); test: CDK2/Cyclin E1 Full length ADP-Glo Kinase Assay; assay type: biochemical; details: 20 uM ATP, read-out: CDK2/ CyclinE1 IC50
Summary of the method: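 ADP-Glo luminescence (ATP depletion, then ADP-to-light conversion) quantified kinase turnover after a 90 min room-temperature reaction started by ATP/substrate, following 30 min enzyme–inhibitor preincubation. Enzyme: full-length CDK2/cyclin E1; IC50 fitted with a four-parameter equation on fractional velocity.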

CDK1/Cyclin B1 = CDK1/Cyclin B1 (Homo sapiens (Human), UniProt P06493); test: CDK1/Cyclin B1 ADP-Glo Kinase Assay; assay type: biochemical
Summary of the method: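 ADP-Glo luminescent readout of ADP production, with IC50 fitted by a four-parameter equation to fractional velocity against inhibitor concentration. Reaction started with ATP-containing substrate after a 30-minute enzyme–inhibitor pre-incubation and stopped after 90 minutes, both at room temperature.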

MCF-7 cells = test: Cell Growth Inhibition, MCF-7 (CellTiterGlo, 6 days); assay type: cell-based; details: Homo sapiens, MCF7, 144 h, MCF-7, 6-day treatment
Summary of the method: as §1

[1] = ADP-Glo, 80 uM ATP, read-out: CDK1 Cyclin B1 IC50

CDK6/Cyclin D3, sequence (Q00534 whole entry): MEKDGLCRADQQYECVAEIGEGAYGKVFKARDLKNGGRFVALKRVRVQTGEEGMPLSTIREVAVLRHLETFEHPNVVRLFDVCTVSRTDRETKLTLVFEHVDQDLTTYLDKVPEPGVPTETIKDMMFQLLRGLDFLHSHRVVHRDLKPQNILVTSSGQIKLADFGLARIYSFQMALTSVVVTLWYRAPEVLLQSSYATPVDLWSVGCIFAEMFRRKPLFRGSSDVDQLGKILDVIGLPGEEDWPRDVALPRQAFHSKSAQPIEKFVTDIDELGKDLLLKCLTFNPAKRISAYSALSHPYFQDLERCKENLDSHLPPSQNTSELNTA
CDK6/Cyclin D3, sequence (P30281 whole entry partner): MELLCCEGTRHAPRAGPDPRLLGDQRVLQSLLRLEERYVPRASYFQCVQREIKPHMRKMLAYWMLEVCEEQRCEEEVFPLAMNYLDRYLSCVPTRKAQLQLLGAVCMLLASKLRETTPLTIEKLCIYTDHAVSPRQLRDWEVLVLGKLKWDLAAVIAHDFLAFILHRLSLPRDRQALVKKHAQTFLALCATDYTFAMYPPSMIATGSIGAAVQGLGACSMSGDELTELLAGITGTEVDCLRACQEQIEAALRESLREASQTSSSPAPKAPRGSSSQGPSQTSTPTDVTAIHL
CDK1/Cyclin B1, sequence (P06493 whole entry): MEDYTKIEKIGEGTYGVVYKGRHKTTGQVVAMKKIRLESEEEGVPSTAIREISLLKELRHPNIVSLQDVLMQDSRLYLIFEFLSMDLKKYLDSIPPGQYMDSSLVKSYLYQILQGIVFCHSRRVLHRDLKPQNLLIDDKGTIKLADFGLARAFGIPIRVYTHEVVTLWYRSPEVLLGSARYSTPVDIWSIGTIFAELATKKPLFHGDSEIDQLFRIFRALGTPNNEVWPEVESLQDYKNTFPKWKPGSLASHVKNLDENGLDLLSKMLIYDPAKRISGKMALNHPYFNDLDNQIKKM
CDK1/Cyclin B1, sequence (P14635 whole entry partner): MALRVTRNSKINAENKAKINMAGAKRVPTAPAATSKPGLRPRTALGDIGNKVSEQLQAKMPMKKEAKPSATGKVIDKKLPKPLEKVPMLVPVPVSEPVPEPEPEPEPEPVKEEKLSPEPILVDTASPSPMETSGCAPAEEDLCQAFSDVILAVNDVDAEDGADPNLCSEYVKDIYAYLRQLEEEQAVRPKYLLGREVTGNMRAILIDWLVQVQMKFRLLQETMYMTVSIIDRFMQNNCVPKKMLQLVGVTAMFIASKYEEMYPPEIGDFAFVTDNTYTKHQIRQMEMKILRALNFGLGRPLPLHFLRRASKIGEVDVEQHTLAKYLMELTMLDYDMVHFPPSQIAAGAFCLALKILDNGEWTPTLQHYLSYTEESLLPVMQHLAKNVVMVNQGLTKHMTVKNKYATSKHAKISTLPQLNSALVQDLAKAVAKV
CDK4/Cyclin D1, sequence (P11802 whole entry): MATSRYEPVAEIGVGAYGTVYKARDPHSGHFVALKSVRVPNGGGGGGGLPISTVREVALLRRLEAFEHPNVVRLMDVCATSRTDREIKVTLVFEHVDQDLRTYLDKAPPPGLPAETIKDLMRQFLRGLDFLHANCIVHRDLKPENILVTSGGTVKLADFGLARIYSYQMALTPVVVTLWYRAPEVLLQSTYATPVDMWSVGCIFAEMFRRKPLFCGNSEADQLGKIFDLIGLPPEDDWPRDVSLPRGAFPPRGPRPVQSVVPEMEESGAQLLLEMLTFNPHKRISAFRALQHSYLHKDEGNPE
CDK4/Cyclin D1, sequence (P24385 whole entry partner): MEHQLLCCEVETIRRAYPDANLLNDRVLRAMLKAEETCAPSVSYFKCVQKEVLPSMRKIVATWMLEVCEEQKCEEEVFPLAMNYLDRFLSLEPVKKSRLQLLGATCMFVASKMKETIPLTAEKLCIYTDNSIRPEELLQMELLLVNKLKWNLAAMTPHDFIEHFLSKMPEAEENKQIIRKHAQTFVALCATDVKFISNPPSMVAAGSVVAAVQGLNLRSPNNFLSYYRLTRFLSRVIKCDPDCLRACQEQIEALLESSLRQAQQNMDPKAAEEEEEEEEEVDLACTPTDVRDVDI

| IC50 (CDK4/Cyclin D1) [nM] | IC50 (OVCAR-3 cells) [nM] | IC50 (CDK6/Cyclin D3) [nM] | IC50 (CDK2/Cyclin E1) [nM] | IC50 (CDK1/Cyclin B1; [1]) [nM] | IC50 (MCF-7 cells) [nM] | Structure (SMILES) | IC50 (CDK1/Cyclin B1) [nM] |
| --- | --- | --- | --- | --- | --- | --- | --- |
| < 200 | 500 to 2000 | < 200 | < 200 | < 200 | 500 to 2000 | Cc1cc2cnc(NC3CCN(S(C)(=O)=O)CC3)nc2c(N2CC3(CNCC3(F)F)C2)n1 [Compound 85, 8-(8,8-difluoro-2,6-diazaspiro[3.4]octan-2-yl)-6-methyl-N-(1-(methylsulfonyl)piperidin-4-yl)pyrido[3,4-d]pyrimidin-2-amine] |  |
| < 200 | > 2000 | 200 to 500 | 200 to 500 | > 2000 | > 2000 | Cc1cc2cnc(N[C@@H]3CCOC[C@H]3O)nc2c(N2CC(O)(C3CC3)C2)n1 [Compound 86, 3-cyclopropyl-1-(2-(((3S,4R)-3-hydroxytetrahydro-2H-pyran-4-yl)amino)-6-methylpyrido[3,4-d]pyrimidin-8-yl)azetidin-3-ol] |  |
| < 200 | 200 to 500 | < 200 | < 200 | < 200 | 500 to 2000 | Cc1cc2cnc(NC3CCN(S(=O)(=O)c4cnn(C)c4)CC3)nc2c(N2CC3(CCNCC3(F)F)C2)n1 [Compound 87, 8-(5,5-difluoro-2,7-diazaspiro[3.5]nonan-2-yl)-6-methyl-N-(1-((1-methyl-1H-pyrazol-4-yl)sulfonyl)piperidin-4-yl)pyrido[3,4-d]pyrimidin-2-amine] |  |
| < 200 | 200 to 500 | < 200 | < 200 | < 200 | 500 to 2000 | Cc1cc2cnc(NC3CCN(S(=O)(=O)c4cnn(C)c4)CC3)nc2c(N2CC(F)(F)C3(CNC3)C2)n1 [Compound 89, 8-(8,8-difluoro-2,6-diazaspiro[3.4]octan-6-yl)-6-methyl-N-(1-((1-methyl-1H-pyrazol-4-yl)sulfonyl)piperidin-4-yl)pyrido[3,4-d]pyrimidin-2-amine] |  |
| < 200 | 500 to 2000 | < 200 | < 200 | < 200 | 500 to 2000 | CS(=O)(=O)N1CCC(Nc2ncc3cc(C(F)F)nc(N4CC5(CCNCC5(F)F)C4)c3n2)CC1 [Compound 90, 8-(5,5-difluoro-2,7-diazaspiro[3.5]nonan-2-yl)-6-(difluoromethyl)-N-(1-(methylsulfonyl)piperidin-4-yl)pyrido[3,4-d]pyrimidin-2-amine] |  |
| < 200 | 200 to 500 | < 200 | < 200 | < 200 | 500 to 2000 | Cc1cc2cnc(NC3CCN(S(C)(=O)=O)CC3)nc2c(N2CC(O)(C(F)F)C2)n1 [Compound 91, 3-(difluoromethyl)-1-(6-methyl-2-((1-(methylsulfonyl)piperidin-4-yl)amino)pyrido[3,4-d]pyrimidin-8-yl)azetidin-3-ol] |  |
| < 200 | 500 to 2000 | < 200 | < 200 | < 200 | 500 to 2000 | Cc1cc2cnc(NC3CCN(S(C)(=O)=O)CC3)nc2c(N2CC(F)(F)C3(CNC3)C2)n1 [Compound 92, 8-(8,8-difluoro-2,6-diazaspiro[3.4]octan-6-yl)-6-methyl-N-(1-(methylsulfonyl)piperidin-4-yl)pyrido[3,4-d]pyrimidin-2-amine] |  |
| < 200 | 500 to 2000 | < 200 | < 200 | < 200 | 500 to 2000 | Cc1cc2cnc(NC3CCN(S(C)(=O)=O)CC3)nc2c(C2CC(O)(C(F)F)C2)n1 (stereo not drawn) [Compound 93, 1-(difluoromethyl)-3-(6-methyl-2-((1-(methylsulfonyl)piperidin-4-yl)amino)pyrido[3,4-d]pyrimidin-8-yl)cyclobutan-1-ol] |  |
| < 200 | 500 to 2000 | < 200 | < 200 | < 200 | 500 to 2000 | CCS(=O)(=O)N1CCC(Nc2ncc3cc(C)nc(N4CC(F)(F)C5(CNC5)C4)c3n2)CC1 [Compound 95, 8-(8,8-difluoro-2,6-diazaspiro[3.4]octan-6-yl)-N-(1-(ethylsulfonyl)piperidin-4-yl)-6-methylpyrido[3,4-d]pyrimidin-2-amine] |  |
| < 200 | 500 to 2000 | < 200 | < 200 | < 200 | 200 to 500 | Cc1cc2cnc(NC3CCN(S(C)(=O)=O)CC3)nc2c(N2CC(F)(F)C3(CN(C)C3)C2)n1 [Compound 96, 8-(8,8-difluoro-2-methyl-2,6-diazaspiro[3.4]octan-6-yl)-6-methyl-N-(1-(methylsulfonyl)piperidin-4-yl)pyrido[3,4-d]pyrimidin-2-amine] |  |
| < 200 | 200 to 500 | < 200 | < 200 | 200 to 500 | 200 to 500 | Cc1cc2cnc(NC3CCN(S(=O)(=O)C4CC4)CC3)nc2c(N2CC3(CCNC3)C2)n1 [Example 25, N-(1-(cyclopropylsulfonyl)piperidin-4-yl)-6-methyl-8-(2,6-diazaspiro[3.4]octan-2-yl)pyrido[3,4-d]pyrimidin-2-amine] |  |
| 200 to 500 | > 2000 | > 2000 | < 200 | > 2000 | 500 to 2000 | Cc1cc2cnc(Nc3cc4c(cc3F)CN(S(C)(=O)=O)C4)nc2c(N2CC3(CCNC3)C2)n1 [Example 39, N-(6-fluoro-2-(methylsulfonyl)isoindolin-5-yl)-6-methyl-8-(2,6-diazaspiro [3.4]octan-2-yl)pyrido[3,4-d]pyrimidin-2-amine] |  |
| < 200 | 500 to 2000 | 200 to 500 | < 200 | 500 to 2000 | 500 to 2000 | Cc1cc2cnc(NC3CCN(S(=O)(=O)CC4CCCC4)CC3)nc2c(N2CC3(CCNC3)C2)n1 [Example 51, N-(1-((cyclopentylmethyl)sulfonyl)piperidin-4-yl)-6-methyl-8-(2,6-diazaspiro[3.4]octan-2-yl)pyrido[3,4-d]pyrimidin-2-amine] |  |
| < 200 | > 2000 | < 200 | < 200 | < 200 | 500 to 2000 | CS(=O)(=O)N1CCC(Nc2ncc3cc(C4CC4)nc(N4CC(F)(F)C5(CNC5)C4)c3n2)CC1 [Example 60, 6-cyclopropyl-8-(8,8-difluoro-2,6-diazaspiro[3.4]octan-6-yl)-N-(1-(methylsulfonyl)piperidin-4-yl)pyrido[3,4-d]pyrimidin-2-amine] |  |
| < 200 | 500 to 2000 | < 200 | < 200 | < 200 | 500 to 2000 | Cc1cc2cnc(NC3CCN(S(=O)(=O)C4CC4)CC3)nc2c(N2CC(F)(F)C3(CNC3)C2)n1 [Example 62, N-(1-(cyclopropylsulfonyl)piperidin-4-yl)-8-(8,8-difluoro-2,6-diazaspiro[3.4]octan-6-yl)-6-methylpyrido[3,4-d]pyrimidin-2-amine] |  |

| Structure (SMILES) | IC50 (CDK4/Cyclin D1) [nM] | IC50 (OVCAR-3 cells) [nM] | IC50 (CDK6/Cyclin D3) [nM] | IC50 (CDK2/Cyclin E1) [nM] | IC50 (CDK1/Cyclin B1; [1]) [nM] | IC50 (MCF-7 cells) [nM] | IC50 (CDK1/Cyclin B1) [nM] |
| --- | --- | --- | --- | --- | --- | --- | --- |
| Cc1cc2cnc(NC3CCN(S(=O)(=O)c4ccn(C)n4)CC3)nc2c(N2CC(F)(F)C3(CNC3)C2)n1 [Compound 94, 8-(8,8-difluoro-2,6-diazaspiro[3.4]octan-6-yl)-6-methyl-N-(1-((1-methyl-1H-pyrazol-3-yl)sulfonyl)piperidin-4-yl)pyrido[3,4-d]pyrimidin-2-amine] | < 200 | 200 to 500 | < 200 | < 200 | < 200 | 500 to 2000 |  |
| Cc1cc2cnc(NC3CCN(S(=O)(=O)c4cnn(C)c4)CC3)nc2c(N2CC(F)(F)C3(CN(C)C3)C2)n1 [Compound 97, 8-(8,8-difluoro-2-methyl-2,6-diazaspiro[3.4]octan-6-yl)-6-methyl-N-(1-((1-methyl-1H-pyrazol-4-yl)sulfonyl)piperidin-4-yl)pyrido[3,4-d]pyrimidin-2-amine] | < 200 | 200 to 500 | < 200 | < 200 |  | 500 to 2000 | < 200 |
| [2H]C([2H])([2H])N1CC2(CN(c3nc(C)cc4cnc(NC5CCN(S(=O)(=O)c6cnn(C)c6)CC5)nc34)CC2(F)F)C1 [Example 11, 8-(8,8-difluoro-2-(methyl-d3)-2,6-diazaspiro[3.4]octan-6-yl)-6-methyl-N-(1-((1-methyl-1H-pyrazol-4-yl)sulfonyl)piperidin-4-yl)pyrido[3,4-d]pyrimidin-2-amine] | < 200 | 200 to 500 | < 200 | < 200 |  | 500 to 2000 | < 200 |
